Test results taken from patent US11779566B2 (priority 2016, dated 2023).
≈ marks a conversion by molar mass, not a printed value.

Legend:
vaccinia virus (VV) = details: in vitro, read-out: 50% effective concentration [EC50], inhibition of virus replication; cited from earlier work
cowpox virus (CV) = details: in vitro, read-out: 50% effective concentration [EC50], inhibition of virus replication; cited from earlier work
ectromelia virus (ECTV) = details: read-out: 50% effective concentration [EC50], inhibition of virus replication; cited from earlier work
monkeypox = details: in vitro, read-out: 50% effective concentration [EC50], inhibition of virus replication; cited from earlier work
camelpox = details: read-out: 50% effective concentration [EC50], inhibition of virus replication; cited from earlier work
variola viruses = details: in vitro, read-out: 50% effective concentration [EC50], inhibition of virus replication; cited from earlier work
VV [1] = details: lethal infection with VV; treatments delayed up to 72 h post-viral inoculation; cited from earlier work
CV = details: lethal infection with CV; treatments delayed up to 72 h post-viral inoculation; cited from earlier work
VV [2] = details: orally twice a day at 15 or 50 mg/kg of body weight for 5 days; cited from earlier work
physchem = details: aqueous buffer
ECTV = details: mouse, in vivo; cited from earlier work

O=C(NN1C(=O)[C@@H]2[C@@H]3C=C[C@@H]([C@H]4C[C@@H]34)[C@@H]2C1=O)c1ccc(C(F)(F)F)cc1 [ST-246, 4-trifluoromethyl-N-(3,3a,4,4a,5,5a,6,6a-octahydro-1,3-dioxo-4,6-ethenocycloprop[f]isoindol-2-(1H)-yl)-benzamide]
EC50 (vaccinia virus (VV)): ≤ 70 nM
EC50 (cowpox virus (CV)): ≤ 70 nM
EC50 (ectromelia virus (ECTV)): ≤ 70 nM
EC50 (monkeypox): ≤ 70 nM
EC50 (camelpox): ≤ 70 nM
EC50 (variola viruses): ≤ 70 nM
preventing or reducing mortality (VV [1]): highly effective in preventing or reducing mortality
preventing or reducing mortality (CV): highly effective in preventing or reducing mortality
tail lesions (VV [2]): significantly reduced
solubility (physchem): ~2 µg/mL (≈ 5.31 µM)
preventing or reducing mortality (ECTV): highly effective in preventing or reducing mortality
toxicity in animal models (ECTV): nontoxic
